Data on 25 compounds can be found in patent publication US11896591B2, “Compositions and methods for preparing and using mitochondrial uncouplers” (UNIVERSITY OF VIRGINIA PATENT FOUNDATION, priority 2017, dated 2024).

By EC50 is commonly meant the concentration needed to bring the measured effect to its halfway point. Higher therefore signals a less potent agent.

This test relates to whole cells. Put plainly: Oxygen consumption rate (OCR) in whole cells, Seahorse XF-24 Flux Analyzer. Format: cell-based. The settings on record: binned EC50 values; increase in oxygen consumption rate in whole cells. Here is the method:
Biological activities of the compounds synthesized is determined by determining increase in oxygen consumption rate (OCR).
OCR is measured using a Seahorse XF-24 Flux Analyzer (Seahorse Biosciences, North Billerica, MA). NMuLi, C2C12, and L6 cells are seeded in a Seahorse 24-well tissue culture plate at a density of 3.5×10^4 cells/well, isolated cardiomyocytes at a density of 4×10^4 cells/well, and human primary fibroblasts at a density of 1.1×10^4 cells/well. The cells are then allowed to adhere for 24 h. […] Compounds are injected during the assay and OCR is measured using 2 min measurement periods.
2-3 wells are used per condition and averaged over three plates (n=6-9). Statistical significance is determined by two-way ANOVA with Bonferroni's posttest.

Regarding `Cn1c(C(F)(F)F)nc2nc(Nc3ccccc3C(F)(F)F)c(Nc3ccccc3C(F)(F)F)nc21` [Compound 13c, N^5,N^6-bis(2-(trifluoromethyl)phenyl)-1-methyl-2-(trifluoromethyl)-imidazo[4,5-b]pyrazine-5,6-diamine], the 50% effective concentration (EC50) was in the range of 5 to 20 µM. In turn, `Cn1c(C(F)(F)F)nc2nc(Nc3cc(C(F)(F)F)cc(C(F)(F)F)c3)c(Nc3cc(C(F)(F)F)cc(C(F)(F)F)c3)nc21` [Compound 13d, N^5,N^6-bis(3,5-bis(trifluoromethyl)phenyl)-1-methyl-2-(trifluoromethyl)-imidazo[4,5-b]pyrazine-5,6-diamine] registered an EC50 of 5 to 20 µM.

In turn, `Cn1c(C(F)(F)F)nc2nc(Nc3cccc(C(F)(F)F)c3F)c(Nc3cccc(C(F)(F)F)c3F)nc21` [Compound 13e, N^5,N^6-bis(2-fluoro-3-(trifluoromethyl)phenyl)-1-methyl-2-(trifluoromethyl)-imidazo[4,5-b]pyrazine-5,6-diamine] showed a 50% effective concentration (EC50) of 5 to 20 µM. In turn, `Cn1c(C(F)(F)F)nc2nc(Nc3ccc(OC(F)(F)F)c(F)c3)c(Nc3ccc(OC(F)(F)F)c(F)c3)nc21` [Compound 13f, N^5,N^6-bis(3-fluoro-4-(trifluoromethoxy)phenyl)-1-methyl-2-(trifluoromethyl)-imidazo[4,5-b]pyrazine-5,6-diamine] had a concentration giving a half-maximal response (EC50) of 5 to 20 µM. `Cn1c(C(F)(F)F)nc2nc(Nc3ccc(C(F)(F)F)cc3F)c(Nc3ccc(C(F)(F)F)cc3F)nc21` [Compound 13g, N^5,N^6-bis(2-fluoro-4-(trifluoromethyl)phenyl)-1-methyl-2-(trifluoromethyl)-imidazo[4,5-b]pyrazine-5,6-diamine] gave an EC50 of less than 5 µM. `Cn1c(C(F)(F)F)nc2nc(Nc3ccc(C(F)(F)F)c(F)c3)c(Nc3ccc(C(F)(F)F)c(F)c3)nc21` [Compound 13h, N^5,N^6-bis(3-fluoro-4-(trifluoromethyl)phenyl)-1-methyl-2-(trifluoromethyl)-imidazo[4,5-b]pyrazine-5,6-diamine]: the 50% effective concentration (EC50) is more than 20 µM. `Cn1c(C(F)(F)F)nc2nc(Nc3cc(F)cc(F)c3)c(Nc3cc(F)cc(F)c3)nc21` [Compound 13i, N^5,N^6-bis(3,5-difluorophenyl)-1-methyl-2-(trifluoromethyl)-imidazo[4,5-b]pyrazine-5,6-diamine] came in with a half-maximal effective concentration (EC50) of 5 to 20 µM. In turn, `Cn1c(C(F)(F)F)nc2nc(Nc3cccc(F)c3F)c(Nc3cccc(F)c3F)nc21` [Compound 13j, N^5,N^6-bis(2,3-difluorophenyl)-1-methyl-2-(trifluoromethyl)-imidazo[4,5-b]pyrazine-5,6-diamine] registered an EC50 of more than 20 µM. `Cc1ccc(Nc2nc3nc(C(F)(F)F)n(C)c3nc2Nc2ccc(C)cc2)cc1` [Compound 13k, 1-Methyl-N^5,N^6-di-p-tolyl-2-(trifluoromethyl)-imidazo[4,5-b]pyrazine-5,6-diamine] returned an EC50 of more than 20 µM. `Cn1c(C(F)(F)F)nc2nc(Nc3ccc(OC(F)(F)F)cc3)c(Nc3ccc(OC(F)(F)F)cc3)nc21` [Compound 13m, 1-Methyl-N^5,N^6-bis(4-(trifluoromethoxy)phenyl)-2-(trifluoromethyl)-imidazo[4,5-b]pyrazine-5,6-diamine] had an EC50 of 5 to 20 µM. In the case of `Cn1c(C(F)(F)F)nc2nc(Nc3ccccc3F)c(Nc3ccc(OC(F)(F)F)cc3)nc21` [Compound 13p, 1-Methyl-N^5-(2-fluorophenyl)-N^6-(4-(trifluoromethoxy)phenyl)-2-(trifluoromethyl)-imidazo[4,5-b]pyrazine-5,6-diamine], the concentration giving a half-maximal response (EC50) was more than 20 µM. The figure for `Cn1c(C(F)(F)F)nc2nc(Nc3ccccc3F)c(Nc3cc(C(F)(F)F)cc(C(F)(F)F)c3)nc21` [Compound 13q, 1-Methyl-N^5-(2-fluorophenyl)-N^6-(3,5-bis(trifluoromethyl)phenyl)-2-(trifluoromethyl)-imidazo[4,5-b]pyrazine-5,6-diamine] is more than 20 µM.

For `COc1ccc(Nc2nc3c(nc2Nc2ccccc2F)nc(C(F)(F)F)n3C)cc1` [Compound 13r, 1-Methyl-N^5-(2-fluorophenyl)-N^6-(4-methoxyphenyl)-2-(trifluoromethyl)-imidazo[4,5-b]pyrazine-5,6-diamine], the concentration for a half-maximal effect (EC50) was more than 20 µM. `Cn1c(C(F)(F)F)nc2nc(Nc3ccccc3F)c(Nc3ccccc3)nc21` [Compound 13s, 1-Methyl-N^5-(2-fluorophenyl)-N^6-phenyl-2-(trifluoromethyl)-imidazo[4,5-b]pyrazine-5,6-diamine] gave an EC50 of more than 20 µM. `Cn1c(C(F)(F)F)nc2nc(Nc3ccccc3F)c(Nc3cccc(C(F)(F)F)c3F)nc21` [Compound 13t, 1-Methyl-N^5-(2-fluorophenyl)-N^6-(2-fluoro-3-(trifluoromethyl)phenyl)-2-(trifluoromethyl)-imidazo[4,5-b]pyrazine-5,6-diamine]: the EC50 is more than 20 µM. Take `Cc1ccc(Nc2nc3c(nc2Nc2ccccc2F)nc(C(F)(F)F)n3C)cc1` [Compound 13u, 1-Methyl-N^5-(2-fluorophenyl)-N^6-(p-tolyl)-2-(trifluoromethyl)-imidazo[4,5-b]pyrazine-5,6-diamine]: the EC50 was more than 20 µM. `Cn1c(C(F)(F)F)nc2nc(Nc3ccccc3F)c(NC3CCCCC3)nc21` [Compound 13v, 1-Methyl-N^5-(2-fluorophenyl)-N^6-cyclohexyl-2-(trifluoromethyl)-imidazo[4,5-b]pyrazine-5,6-diamine] registered a 50% effective concentration (EC50) of more than 20 µM. To `CCCNc1nc2c(nc1Nc1ccccc1F)nc(C(F)(F)F)n2C` [Compound 13w, 1-Methyl-N^5-(2-fluorophenyl)-N^6-propyl-2-(trifluoromethyl)-imidazo[4,5-b]pyrazine-5,6-diamine] belongs more than 20 µM; to `Cn1c(C(F)(F)F)nc2nc(Nc3ccccc3F)c(NCCC(F)(F)F)nc21` [Compound 13x, 1-Methyl-N^5-(2-fluorophenyl)-N^6-3,3,3-trifluoropropyl-2-(trifluoromethyl)-imidazo[4,5-b]pyrazine-5,6-diamine], more than 20 µM; to `COC(=O)n1c(C(F)(F)F)nc2nc(Nc3ccccc3F)c(Nc3ccccc3F)nc21` [Compound 14a, Methyl 5,6-bis((2-fluorophenyl)amino)-2-(trifluoromethyl)-imidazo[4,5-b]pyrazine-1-carboxylate], 5 to 20 µM. To `COC(=O)n1c(C(F)(F)F)nc2nc(Nc3cc(F)cc(F)c3)c(Nc3cc(F)cc(F)c3)nc21` [Compound 14c, Methyl 5,6-bis((3,5-difluorophenyl)amino)-2-(trifluoromethyl)-imidazo[4,5-b]pyrazine-1-carboxylate] belongs 5 to 20 µM. In the case of `FC(F)(F)c1cccc(Nc2nccnc2Nc2cccc(C(F)(F)F)c2)c1` [Compound 16b, N^2,N^3-bis(3-(trifluoromethyl)phenyl)pyrazine-2,3-diamine], the concentration giving a half-maximal response (EC50) is less than 5 µM. Compound `FC(F)(F)c1ccc(Nc2nccnc2Nc2ccc(C(F)(F)F)cc2)cc1` [Compound 16c, N^2,N^3-bis(4-(trifluoromethyl)phenyl)pyrazine-2,3-diamine] showed an EC50 of less than 5 µM. `FC(F)(F)c1cc(Nc2nccnc2Nc2cc(C(F)(F)F)cc(C(F)(F)F)c2)cc(C(F)(F)F)c1` [Compound 16f, N^2,N^3-bis(3,5-bis(trifluoromethyl)phenyl)pyrazine-2,3-diamine]: the 50% effective concentration (EC50) was in the range of 5 to 20 µM. Turning to `Fc1cc(C(F)(F)F)ccc1Nc1nccnc1Nc1ccc(C(F)(F)F)cc1F` [Compound 16h, N^2,N^3-bis(2-fluoro-4-(trifluoromethyl)phenyl)pyrazine-2,3-diamine], the concentration giving a half-maximal response (EC50) was in the range of 5 to 20 µM.
